From patent US11965100B2, “Aggregation-induced emission luminogens useful for cancer cell discrimination and monitoring” (The Hong Kong University of Science and Technology, priority 2020, dated 2024)

How the values were obtained:
[1] = Two-photon absorption cross section in DMSO, fluorescein as standard; type: physicochemical
From the text: In addition, IVP-02 emits redder fluorescence in solid state than that in solution. To testify the mechanism of the red shift in solid state of IVP-02, its crystal has been analyzed in FIGS. 2G and 2H. The molecules of IVP-02 are anti-parallelly stacked and form multimers in the crystalline state. The short intermolecular stacking distances of the multimers are 3.636 Å, 3.455 Å, 3.394 Å, 3.375 Å, 3.466 Å, and 3.465 Å, indicating strong intermolecular interactions inside the multimers. So the red-shift emission in solid state should be attributed to the intermolecular π-π interactions induced by the short contact between the molecules. […] The TPEF spectra of IVP-02 excited at different pulse wavelengths (780-900 nm) in DMSO were measured in FIG. 2F. The highest […] was 287 GM excited at 800 nm. Such high δ value is beneficial for two-photon imaging in live cells and deep tissues.

[2] = Absorption and one-photon excited fluorescence spectra, AIE activity; type: physicochemical
From the text: Similar results were reported by others. […] With the increase of glycerol volume content accompanied by viscosity increasing, the FL intensity increased gradually. […] These phenomena occur because high viscosity and low temperature could hamper intramolecular motion, leading to the closure of the nonradiative decay channel and thus enhanced FL emission. Furthermore, we added some RNA in PBS solution of IVP-02. […] Based on the calculation results in FIG. 20, IVP-02 located in the minor grooves of RNA, where the intramolecular motion of IVP-02 was also hampered.

[3] = system: mitochondria in HeLa and A549 cells; test: Co-stain with mitochondrial probe MitoTracker Deep Red FM (MTDR); type: cell-based; settings: 2 μM dye, 0.2 μM MTDR, HeLa and A549
Method: FIG. 6 CLSM images of live HeLa and A549 cells stained with 2 μM IVP-02 and 0.2 μM MTDR, respectively. IVP-02: λex=488 nm, λem=500-650 nm; MTDR: λex=640 nm, λem=650-700 nm. Scale bar=20 μm.
In the above pictures, filamentous structures in cytoplasm of cancer cells were observed, which were typical morphology of mitochondria. Then co-stain experiments with commercial mitochondrial probe MitoTracker™ Deep Red FM (MTDR) were carried out (FIG. 6).
It was speculated that the membrane permeability of the probe was a key factor for its selectivity to cancer cells, since the plasma membrane of cancer cells was reported to be more permeable than normal cells. Consequently, IVP-02 was modified by lengthening the alkyl chain at the pyridine salt side and indole side, respectively, to tune the membrane permeability. The synthetic route to these new IVP molecules is depicted in Scheme 1. Their chemical structures were fully characterized by ^1H NMR, ^13C NMR, and ^19F NMR. Then cancer cells A549 were stained with the five new molecules, respectively. […] The co-stain experiments with MTDR also confirmed their location in mitochondria in A549 cells in FIG. 7C. In addition to A549 cells, the same experiments were also carried in HeLa cells (FIGS. 8 and 9).

HeLa cells = test: Mitochondrion-nucleolus migration on CCCP treatment, HeLa cells; type: cell-based; settings: pre-stained 2 μM 30 min, 20 μM CCCP 5 min
Method: (§1) FIG. 16 Live HeLa cells were pre-stained with 2 μM IVP-02 for 30 min, and treated with 20 μM CCCP for 5 min. Then CCCP was removed away and fresh culture medium was added for another 5 min. λex=488 nm, λem=500-650 nm. Scale bar=20 μm.
FIG. 19 Live HeLa cells were pre-stained with 2 μM IVP-04, 22, 42, 06, 62 for 30 min, and treated with 20 μM CCCP for 5 min. Then CCCP was removed away and fresh culture medium was added for another 5 min, respectively. λex=488 nm, λem=500-650 nm. Scale bar=20 μm.
(§2) Monitoring cell viability is a highly valuable task for the fundamental researches in biology, pathology, and medicine. Then we investigated whether IVP-02 could monitor cell viability. Δψm is a very important indicator to characterize cell viability. With the loss of cell viability, Δψm would decrease, while with the recovery of cell viability, Δψm would also recover to the normal level. […] Carbonyl cyanide m-chlorophenyl hydrazone (CCCP) is a type of protonophore and can cause rapid acidification of mitochondria by collapsing Δψm. Cancer cells A549 were pre-stained with IVP-02 for 30 min. In FIG. 15A, in the beginning, IVP-02 stained mitochondria clearly. […] Hydrogen peroxide (H2O2) can inhibit the oxidation respiratory chain that would cause the loss of cell viability. Then live A549 and HeLa cells were pre-stained with IVP-02, and treated with 10 mM H2O2.
In addition to IVP-02, we further investigated whether other IVP molecules could monitor the viability of cancer cells through mitochondrion-nucleolus migration was investigated. A549 cells were pre-stained with IVP-04, 22, 42, 06, and 62, respectively, and then CCCP was added.

A549 and HeLa cells = test: Mitochondrion-nucleolus migration on H2O2 treatment; type: cell-based; settings: pre-stained 2 μM 30 min, 10 mM H2O2 10 min
Method: FIG. 17 Live A549 and HeLa cells were pre-stained with 2 μM IVP-02 for 30 min, and treated with 10 mM H2O2 for 10 min. λex=488 nm, λem=500-650 nm. Scale bar=20 μm.
as §2

[4] = system: A549 co-cultured with COS7 cells, HeLa co-cultured with COS7 cells; test: CCCP treatment of cancer cells co-cultured with normal cells; type: cell-based; settings: A549 or HeLa with COS7, 2 μM, 20 μM CCCP added then removed
Method: as §1, with “15” for “16”, “Live A549 cells (A) and live A549 co-cultured with COS 7 cells, live” for “Live”, “HeLa co-cultured with COS7” for “HeLa”, “cells (B)” for “cells”
To test whether IVP-02 could selectively stain cancer cells and monitor their viability, cancer cells and normal cells were co-cultured and stained with IVP-02. […] After CCCP was removed, the fluorescence in nucleolus disappeared, while the fluorescence in mitochondria recovered gradually. […] The same experiments were also carried out in HeLa cells co-cultured with COS7 cells shown in FIG. 15B and similar phenomena were observed.

CC[n+]1ccc(/C=C/c2c[nH]c3ccccc23)cc1 [IVP-02]
Two-photon absorption cross section (δ) ([1]; λex 780 nm): 106 GM
Two-photon absorption cross section (δ) ([1]; λex 800 nm): 287 GM
Two-photon absorption cross section (δ) ([1]; λex 820 nm): 173 GM
Two-photon absorption cross section (δ) ([1]; λex 840 nm): 194 GM
Two-photon absorption cross section (δ) ([1]; λex 860 nm): 271 GM
Two-photon absorption cross section (δ) ([1]; λex 880 nm): 227 GM
Two-photon absorption cross section (δ) ([1]; λex 900 nm): 78 GM
AIE activity ([2]; viscosity, temperature, RNA, solid state): possesses AIE activity
fluorescence in the solid state ([2]; λex 440 nm): around 575 nm
co-localization coefficient with MTDR [3]: around 0.9
nucleolus staining after addition of CCCP (HeLa cells): could stain nucleolus
fluorescence after adding H2O2 (A549 and HeLa cells): strong fluorescence was observed in nucleolus
selective staining and viability monitoring in co-cultured cells [4]: could selectively stain cancer cells and monitor their viability through mitochondrion-nucleolus migration
